From ChEMBL document CHEMBL5120779, “Thiazolidinedione-Based Structure Modification of Celastrol Provides Thiazolidinedione-Conjugated Derivatives as Potent Agents against Non-Small-Cell Lung Cancer Cells through a Mitochondria-Mediated Apoptotic Pathway” (J Nat Prod, 2022) come the findings set out here.

A short description of data set [1]: Cytotoxicity against human MRC5 cells assessed as inhibition of cell growth measured after 96 hrs by MTT assay. The class given is toxicity, cell-based. In general terms: Formazan colour is commonly taken as a measure of viable cells.
Data set [2] in a line: Selectivity index, ratio of IC50 for human MRC5 cells to IC50 for human A549 cells. Type of data set: toxicity. As to conditions: MRC5 cells and A549 cells, read-out: Ratio IC50.
In data set [3] the test system is A549. Briefly: Potency index, ratio of celastrol IC50 to test compound IC50 for cytotoxicity against human A549 cells by MTT assay. The class given is functional.
The test system of data set [4] is A549. Briefly: cells. As to conditions: Homo sapiens, A549, 96 h.
Description: Cytotoxicity against human A549 cells assessed as inhibition of cell growth measured after 96 hrs by MTT assay
The test system of data set [5] is A549. Briefly: Induction of apoptosis in human A549 cells assessed as necrotic cells at 0.5 uM incubated for 48 hrs by Annexin V-FITC/propidium iodide staining based flow cytometry (reference value: 3.36%). Type of data set: functional. For orientation: A flow cytometer gives signals particle by particle.
Data set [6] has as its system A549. Briefly: Induction of apoptosis in human A549 cells assessed as late apoptotic cells at 0.5 uM incubated for 48 hrs by Annexin V-FITC/propidium iodide staining based flow cytometry (reference value: 0.82%). Type of data set: functional.
Data set [7] relates to A549. Briefly: Induction of apoptosis in human A549 cells assessed as early apoptotic cells at 0.5 uM incubated for 48 hrs by Annexin V-FITC/propidium iodide staining based flow cytometry (reference value: 0.11%). The class given is functional.
The test system of data set [8] is A549. Briefly: Cytotoxicity against human A549 cells assessed as inhibition of cell proliferation at 0.125 to 2 uM by MTT assay. The class given is functional, cell-based. Particulars: dose 0.125-2 µM, time 24-72 hrs, TDE = time-dependent effect.
Data set [9] deals with A549. Briefly: Cytotoxicity against human A549 cells assessed as inhibition of cell proliferation measured after 24 to 72 hrs by MTT assay. Type of data set: functional, cell-based. As to conditions: dose 0.125-2 µM, time 24-72 hrs, DDE = dose-dependent effect.
The subject of data set [10] is A549. Briefly: Induction of apoptosis in human A549 cells assessed as viable cells at 0.5 uM incubated for 48 hrs by Annexin V-FITC/propidium iodide staining based flow cytometry (reference value: 95.7%). The class given is functional. Particulars: read-out: Activity.

Turning to `CC1=C(O)C(=O)C=C2C1=CC=C1[C@@]2(C)CC[C@@]2(C)[C@@H]3C[C@](C)(C(=O)N4CCN(C(=O)CN5C(=O)S/C(=C\C(C)C)C5=O)CC4)CC[C@]3(C)CC[C@]12C`, in data set [1], the IC50 (usually the point on the concentration scale where inhibition reaches its midpoint) at 96 h amounted to 2930 nM. Also, the selectivity ratio in data set [2] was 32.6. Moreover, in data set [3], the “Ratio IC50” value is recorded as 12.2. In addition, the IC50 in data set [4] came to 90 nM.
With `CC1=C(O)C(=O)C=C2C1=CC=C1[C@@]2(C)CC[C@@]2(C)[C@@H]3C[C@](C)(C(=O)N4CCN(C(=O)CN5C(=O)S/C(=C\c6cccc(F)c6)C5=O)CC4)CC[C@]3(C)CC[C@]12C`, the IC50 at 96 h in [1] is 3180 nM. Further, the selectivity ratio in data set [2] amounted to 7.95. 400 nM corresponded to half-maximal inhibition in data set [4] (IC50).
For `CC1=C(O)C(=O)C=C2C1=CC=C1[C@@]2(C)CC[C@@]2(C)[C@@H]3C[C@](C)(C(=O)N4CCN(C(=O)CN5C(=O)S/C(=C\c6ccc7c(c6)OCO7)C5=O)CC4)CC[C@]3(C)CC[C@]12C`, the IC50 at 96 h in [1] turned out to be 4000 nM. For the same molecule, the selectivity ratio in data set [2] was found to be 9.43. Further, in [4], inhibition was half-maximal at 350 nM (IC50).
Taken in the same sequence, the figures for `CC1=C(O)C(=O)C=C2C1=CC=C1[C@@]2(C)CC[C@@]2(C)[C@@H]3C[C@](C)(C(=O)N4CCN(C(=O)CN5C(=O)S/C(=C\c6cccc(C)c6)C5=O)CC4)CC[C@]3(C)CC[C@]12C` were 3190 nM, 6.01 and 530 nM.
The matching figures for `COc1cccc(/C=C2\SC(=O)N(CC(=O)N3CCN(C(=O)[C@]4(C)CC[C@]5(C)CC[C@]6(C)C7=CC=C8C(=CC(=O)C(O)=C8C)[C@]7(C)CC[C@@]6(C)[C@@H]5C4)CC3)C2=O)c1`: 2380 nM, 6.61 and 360 nM.
The matching figures for `CC1=C(O)C(=O)C=C2C1=CC=C1[C@@]2(C)CC[C@@]2(C)[C@@H]3C[C@](C)(C(=O)N4CCN(C(=O)CN5C(=O)S/C(=C\c6ccc(F)cc6)C5=O)CC4)CC[C@]3(C)CC[C@]12C`: 2750 nM, 7.43 and 370 nM.
As to `CC1=C(O)C(=O)C=C2C1=CC=C1[C@@]2(C)CC[C@@]2(C)[C@@H]3C[C@](C)(C(=O)N4CCN(C(=O)CN5C(=O)S/C(=C\c6cccc(Cl)c6)C5=O)CC4)CC[C@]3(C)CC[C@]12C`, the IC50 at 96 h in [1] is 3160 nM. Further, the selectivity ratio in [2] was 6.58. In addition, half-maximal inhibition in [4] (IC50) required 480 nM.
Taken in the same sequence, the figures for `CC1=C(O)C(=O)C=C2C1=CC=C1[C@@]2(C)CC[C@@]2(C)[C@@H]3C[C@](C)(C(=O)N4CCN(C(=O)CN5C(=O)S/C(=C\c6ccc(Cl)cc6)C5=O)CC4)CC[C@]3(C)CC[C@]12C` were 3080 nM, 7.33 and 420 nM.
As to `CC1=C(O)C(=O)C=C2C1=CC=C1[C@@]2(C)CC[C@@]2(C)[C@@H]3C[C@](C)(C(=O)N4CCN(C(=O)CN5C(=O)S/C(=C\C6CCCC6)C5=O)CC4)CC[C@]3(C)CC[C@]12C`, the 50% inhibitory concentration (IC50) at 96 h in [1] was 3210 nM. Further, in [2], the selectivity ratio was found to be 18.9. The same molecule showed an IC50 in [4] of 170 nM.
Taken in the same sequence, the figures for `CC1=C(O)C(=O)C=C2C1=CC=C1[C@@]2(C)CC[C@@]2(C)[C@@H]3C[C@](C)(C(=O)N4CCN(C(=O)CN5C(=O)S/C(=C\c6ccccc6)C5=O)CC4)CC[C@]3(C)CC[C@]12C` were 2510 nM, 6.28 and 400 nM.
The matching figures for `CC1=C(O)C(=O)C=C2C1=CC=C1[C@@]2(C)CC[C@@]2(C)[C@@H]3C[C@](C)(C(=O)N4CCN(C(=O)CN5C(=O)S/C(=C\c6ccc(C)cc6)C5=O)CC4)CC[C@]3(C)CC[C@]12C`: 2500 nM, 4.91 and 510 nM.
Taken in the same sequence, the figures for `COc1ccc(/C=C2\SC(=O)N(CC(=O)N3CCN(C(=O)[C@]4(C)CC[C@]5(C)CC[C@]6(C)C7=CC=C8C(=CC(=O)C(O)=C8C)[C@]7(C)CC[C@@]6(C)[C@@H]5C4)CC3)C2=O)cc1` were 2040 nM, 6.38 and 320 nM.
`CC1=C(O)C(=O)C=C2C1=CC=C1[C@@]2(C)CC[C@@]2(C)[C@@H]3C[C@](C)(C(=O)N4CCN(C(=O)CN5C(=O)S/C(=C\c6ccc(Br)cc6)C5=O)CC4)CC[C@]3(C)CC[C@]12C`: the IC50 at 96 h in data set [1] worked out at 3710 nM. Also, the selectivity ratio in data set [2] was found to be 7.27. In [4], this molecule returned an IC50 of 510 nM.
For `CCCC/C=C1\SC(=O)N(CC(=O)N2CCN(C(=O)[C@]3(C)CC[C@]4(C)CC[C@]5(C)C6=CC=C7C(=CC(=O)C(O)=C7C)[C@]6(C)CC[C@@]5(C)[C@@H]4C3)CC2)C1=O`, the IC50 at 96 h in data set [1] was determined as 3440 nM. In [2], the selectivity ratio was 10.8. Further, the half-inhibitory concentration (IC50) in data set [4] stood at 320 nM.
Taken in the same sequence, the figures for `CC1=C(O)C(=O)C=C2C1=CC=C1[C@@]2(C)CC[C@@]2(C)[C@@H]3C[C@](C)(C(=O)N4CCN(C(=O)CN5C(=O)CSC5=O)CC4)CC[C@]3(C)CC[C@]12C` were 5700 nM, 3.68 and 1550 nM.
Taken in the same sequence, the figures for `CC1=C(O)C(=O)C=C2C1=CC=C1[C@@]2(C)CC[C@@]2(C)[C@@H]3C[C@](C)(C(=O)N4CCN(C(=O)CN5C(=O)S/C(=C\c6cccc(Br)c6)C5=O)CC4)CC[C@]3(C)CC[C@]12C` were 4020 nM, 3.79 and 1060 nM.
The matching figures for `CC1=C(O)C(=O)C=C2C1=CC=C1[C@@]2(C)CC[C@@]2(C)[C@@H]3C[C@](C)(C(=O)N4CCN(C(=O)CN5C(=O)S/C(=C\c6ccco6)C5=O)CC4)CC[C@]3(C)CC[C@]12C`: 1050 nM, 6.18 and 170 nM.
`CC1=C(O)C(=O)C=C2C1=CC=C1[C@@]2(C)CC[C@@]2(C)[C@@H]3C[C@](C)(C(=O)N4CCN(C(=O)CN5C(=O)S/C(=C\C6CCCCC6)C5=O)CC4)CC[C@]3(C)CC[C@]12C`: the IC50 at 96 h in [1] amounted to 3610 nM. For the same molecule, the selectivity ratio in [2] was determined as 6.56. The IC50 in data set [4] was 550 nM.
`CC1=C(O)C(=O)C=C2C1=CC=C1[C@@]2(C)CC[C@@]2(C)[C@@H]3C[C@](C)(C(=O)O)CC[C@]3(C)CC[C@]12C` [CELASTROL]: the Activity was 4.6% in data set [5]; 6.97% in data set [6]; 1.12% in [7]; “Tde” in [8]; “Dde” in data set [9]. The half-inhibitory concentration (IC50) at 96 h in data set [1] was determined as 4400 nM. The selectivity ratio in [2] came out at 4. The viability at 0.5 µM in [10] is 87.3%. Further, the IC50 in data set [4] came out at 1100 nM.
Take `CC1=C(O)C(=O)C=C2C1=CC=C1[C@@]2(C)CC[C@@]2(C)[C@@H]3C[C@](C)(C(=O)N4CCN(C(=O)CN5C(=O)S/C(=C\c6cccs6)C5=O)CC4)CC[C@]3(C)CC[C@]12C`: in data set [1], the IC50 at 96 h was 1270 nM. In addition, the selectivity ratio in data set [2] is 3.53. The molecule further displayed an IC50 in [4] of 360 nM.
For `CC1=C(O)C(=O)C=C2C1=CC=C1[C@@]2(C)CC[C@@]2(C)[C@@H]3C[C@](C)(C(=O)N4CCN(C(=O)CN5C(=O)S/C(=C\c6ccc(N(C)C)cc6)C5=O)CC4)CC[C@]3(C)CC[C@]12C`, in [1], the IC50 at 96 h was found to be 4770 nM. For the same molecule, the selectivity ratio in [2] worked out at 5.07. The same molecule returned an IC50 in [4] of 940 nM.
